How the values were obtained:
rat skin = assay: Delivery of Cy5-PEG/Cy3-PEG microneedle tattoo to the shaved skin of living rats; assay type: in vivo; conditions: MN delivery, fluorescence stereomicroscopy several hours after application
[1] = 50 μM/500 μM of FeSO4:H2O2, 10 μM dye
UV-induced dermal ROS = assay: In vivo sensing of UV irradiation-induced ROS in rat skin; parameters: species or system Sprague-Dawley rats; conditions: 30 minutes after application, t=0 h and t=24 h after irradiation
Excerpt: Male Sprague-Dawley rats (Charles River, St-Constant, QC) with weight ranging from 300-350 g at delivery were used for this study. Following arrival in the animal facility, all animals were subjected to a general health evaluation. An acclimation period of 5 days was allowed before the beginning of the study. Each animal cage was equipped with a manual water distribution system. A standard certified commercial rodent diet was provided ad libitum. Tap water was provided ad libitum at all times. Rats dorsal skin was shaved and depilated under isoflurane-induced anesthesia using an electric razor and depilating cream (Nair, Church & Dwight) the day before experimentation. Rats were extensively rinsed to prevent burning with residual depilating agent. For irradiation, animals were anesthetized with isoflurane and placed under the UV irradiating lamp (Daavlin 24″ research unit×305/350-6/6) equipped with a UV power meter to manually validate constant dosimetry. Irradiated animal received 700 mJ·cm^2 of UVB. […] Three MN arrays were applied at the same time on different sites of the dorsal skin. MNs were removed, and the application sites were scanned for fluorescence using the portable fluorescence reader. On the first day, sites were read after 0.5, 1, 4, and 6 h. On the second day, new MNs were applied and read immediately or 6 h after application. […]

[2] = system: inflammatory filaggrin-deficient (FLG-) skin model; assay: H-Cy5-PEG/Cy7.5-PEG microneedle tattoo in human-based atopic skin model; assay type: cell-based; conditions: human-based atopic model of skin inflammation, 20 minutes
Method: To provide the proof of concept for our approach and to validate the potential use of a medical tattoo in a biological system, the sensing properties of the generated MNs were tested in human-based inflammatory skin model that closely emulates characteristics of atopic skin in vitro^[76] and has been previously verified for the presence of disease-relevant ROS.^[77] This model has been extensively characterized in previous work showing excellent correlation with atopic skin in vivo.^[76,78,79] The skin model is based on a filaggrin knockdown, as filaggrin mutations are a major pre-disposing factor for AD.^[80] […] Cy7.5 was selected based on its structural similarity to Cy5 and other cyanines, displaying similar physicochemical properties and allowing PEGylation in the same manner as Cy5, as well as its NIR fluorescence (λex=788 nm; λem=808 nm), optimal for visibility in the skin. […]
The MNs rapidly dissolved within 2 minutes, after which the backing layer was carefully removed. The fluorescence intensities of the sensor and reference dye in the skin models were determined using an IVIS Lumina II imaging system (Perkin Elmer) at 0, 5, 15 and 20 mins after MN application. […] The fluorescence signal for each model was assessed by selecting a region of interest (ROI) and by the signal-to-noise ratio (Cy5 ROI/Cy7.5 ROI).

[3] = Reoxidation of H-Cy5-PEG/Cy7.5-PEG microneedle tattoo in excised porcine skin; conditions: H2O2 (100 mM) or Fenton's reagent (40 μM/400 μM), portable fluorescence reader
Method: Microneedle tattoos containing both the sensor and reference dye were delivered ex vivo to excised porcine skin that had been treated with either distilled water (control), or a source of ROS—either H2O2 (100 mM) or Fenton's reagent (40 μM/400 μM).
Excised porcine skin was obtained and shaved using a manual blade razor to remove any hair. The skin was permeabilized using a 1.0 mm dermaroller (DermaRollerSystem.com, Markham, ON), 200 μL of either distilled H2O, 100 mM H2O2, or Fenton's Reagent (40 μM FeSO4/400 μM H2O2) was added and allowed to soak into the skin for 20 minutes, after which any excess was removed with a paper towel. […] After removal of the MN backing layer, the fluorescence of the application site was measured with the portable fluorescence reader, using both the Cy5 and Cy7.5 filters (Cy5: λex=638 nm, λem=668-702 nm; Cy7.5: λex=782 nm, λem=810-840 nm). For each MN application, 3 measurements were recorded at each wavelength.

| Molecule | diffusion in the skin (rat skin) | signal retained when exposed to ROS [1] [%] | Cy7.5-PEG fluorescence intensity after application in vivo (UV-induced dermal ROS) | Cy7.5-PEG fluorescence intensity over time [2] | fluorescence at Cy7.5-PEG wavelengths in the presence of ROS [3] |
| --- | --- | --- | --- | --- | --- |
| CN1/C(=C/C=C/C2=[N+](CCCCCC(=O)O)c3ccccc3C2(C)C)C(C)(C)c2ccccc21 [Cy3, Cyanine-3] | minimal diffusion | 40 | – | – | – |
| CN1/C(=C/C=C/C=C/C2=[N+](CCCCCC(=O)O)c3ccccc3C2(C)C)C(C)(C)c2ccccc21 [Cy5, Cyanine-5] | minimal diffusion | – | – | – | – |
| Cyanine-7.5-PEG [Cy7.5-PEG] | – | – | no significant decrease | did not decrease | unaffected |

From patent publication US20240131198A1, “RATIOMETRIC BIOSENSOR TATTOOS AND USE THEREOF FOR REAL TIME MEASUREMENTS” (priority 2022, published 2024)
